Results on one molecule are retold here after ChEMBL document CHEMBL6127146, “Exploring the Polypharmacological Potential of PCI-27483: A Selective Inhibitor of Carbonic Anhydrases IX and XII” (ACS Med Chem Lett, 2024).

This assay deals with Carbonic anhydrase 3 (Homo sapiens, UniProt P07451).
Chain of Carbonic anhydrase 3 (P07451 whole entry): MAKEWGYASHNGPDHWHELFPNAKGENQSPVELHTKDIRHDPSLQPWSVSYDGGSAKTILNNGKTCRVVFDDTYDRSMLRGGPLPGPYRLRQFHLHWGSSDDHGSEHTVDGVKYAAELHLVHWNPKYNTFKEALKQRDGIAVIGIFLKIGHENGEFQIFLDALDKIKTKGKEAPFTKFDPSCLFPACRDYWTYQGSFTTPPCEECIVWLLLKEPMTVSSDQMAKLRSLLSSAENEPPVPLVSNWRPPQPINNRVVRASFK

Description: Inhibition of human CA3 preincubated for 15 mins by phenol red dye based stopped flow CO2 hydration assay

In the case of `N=C(N)c1ccc2nc(-c3cc(CC(=O)N[C@@H](CC(=O)O)C(=O)O)cc(-c4cc(S(N)(=O)=O)ccc4O)c3O)[nH]c2c1` [PCI-27483], the Ki was greater than 100 µM.
